Measurements taken from patent US20100284927A1, “USE OF MRI CONTRAST AGENTS FOR EVALUATING THE TREATMENT OF TUMORS” (University of Utah Research Foundation, priority 2007, published 2010).
Where “and” joins values, the source holds several entries; their conditions need not be identical. Equal entries are not always repeated. Marks after values point to notes of the source that are not given here.

Key:
human VEGF-A = settings: in vivo; cited from earlier work
[1] = in mice body; cited from earlier work
[2] = tested on: HT-29 human colon carcinoma; assay: Effect of Avastin on growth of HT-29 colon cancer; assay type: in vivo, NCr-nu/nu nude mice; settings: 36 h after Avastin-treatment, 200 μg/mouse i.p.; pre-treatment 508±185 mm^3
Experimental: The study protocol was approved by the local ethics committee for animal care and use. HT-29 human colon carcinoma cell line was purchased from American Type Culture Collection (ATCC, Manassas, Va.) with ATCC number HTB-38™. HT-29 cell line was cultured using ATCC complete growth medium (5 McCoy's Medium with 10% fetal bovine serum).
Athymic female NCr-nu/nu nude mice at 4 weeks were purchased form National Cancer Institute at Frederick, M D. Concentrated HT-29 cells in complete medium was mixed with Matrigel basement membrane matrix (BD Biosciences, San Jose, Calif.) at 1:1 ratio. 2×10^6 cells in 100 μl mixture were implanted s.c. in the flank of 12 mice weighing about 23 g.
Animals were selected for study when the tumors reached approximately 1 cm in diameter (about 3 weeks after tumor cells inoculation) and were randomly divided into two groups (each group n=6, group1 and group2). One group (group1) underwent DCE-MRI with macromolecular contrast agent-GDCC40K (MW: 40 KDa), and another group (group2) underwent DCE-MRI with small molecular weight contrast agent—Ominiscan (MW: 574 Da). Before treatment, Ominiscan was injected at 0.1 mmol-Gd/kg for […], GDCC40OK (40K Da) was injected at 0.05 mmol-Gd/kg for […]. […]
In addition, tumor size of all animals was determined using a caliper during the study.

[3] = reference (36); cited from earlier work
[4] = tested on: HT-29 human colon carcinoma; assay: DCE-MRI assessment of anti-angiogenic effect of Avastin, K^trans and fPV of tumor rim; assay type: in vivo, NCr-nu/nu nude mice; settings: for K^trans 36 h after treatment / fpv 36 h after treatment: 36 h after initiating Avastin 200 μg/mouse i.p.; for K^trans 7 days after treatment / fpv 7 days after treatment: 7 days after initiating Avastin 200 μg/mouse i.p. every 2 days; for K^trans pretreatment / fpv pretreatment: before Avastin, GDCC40K 0.05, Omniscan 0.1 mmol-Gd/kg
[5] = tested on: MDA-MB-231 human breast cancer tumors; assay: DCE-MRI with linear compartmental model, PV, FLR and PS (section II); assay type: in vivo, athymic nude mice
[6] = tested on: MDA-MB-231 human breast cancer tumors; assay: 2D spin echo MRI with various doses of GDCC-40 (section II); assay type: in vivo, athymic nude mice; settings: 2D SE images
[7] = tested on: MDA-MB-231 human breast cancer tumors; assay: DCE-MRI with linear compartmental model, PV and FLR, SI time curves (section I); assay type: in vivo, athymic nude mice; settings: for FLR, tumor center / FLR, tumor rim / FLR, whole tumor: fractional leakage rate; for FLR, tumor center / FLR, tumor rim / FLR, whole tumor / PV, tumor center / PV, tumor rim / PV, whole tumor: GDCC-40 0.05, Gd-DTPA-BMA 0.1 mmol-Gd/kg; for PV, tumor center / PV, tumor rim / PV, whole tumor: plasma volume; for PV values (range over tumor regions, Table 5) / estimated FLR values (range over tumor regions, Table 5): tumor center to tumor rim
[8] = tested on: MDA-MB-231 human breast cancer tumors; assay: Contrast enhanced 2D spin echo MRI, SI enhancement of tumors (section I); assay type: in vivo, athymic nude mice; settings: 2D SE images; for SI enhancement ratio (SI post/SI pre) of the whole untreated tumor: Gd-(DTPA-BMA) 0.1 mmol-Gd/kg, GDCC-40 0.05 mmol-Gd/kg i.v.; for residual tumor enhancement ratio (SI post/SI pre): residual tumor after treatment, Gd-(DTPA-BMA) 0.1, GDCC-40 0.05 mmol-Gd/kg i.v.

human VEGF-A, sequence (P15692 207-311 limits assumed): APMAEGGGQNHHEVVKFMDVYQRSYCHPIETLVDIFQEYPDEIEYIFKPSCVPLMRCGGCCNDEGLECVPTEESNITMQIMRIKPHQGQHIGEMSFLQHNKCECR

Molecule | K^trans 36 h after treatment [4] | fpv 36 h after treatment [4] | K^trans 7 days after treatment [4] | fpv 7 days after treatment [4] | K^trans pretreatment [4] | fpv pretreatment [4] | time at which SI of muscle reached plateau ([7]; DCE-MRI time course) | time at which SI of tumor rim reached a maximum ([7]; DCE-MRI time course) | FLR, tumor center [7] | FLR, tumor rim [7] | FLR, whole tumor [7] | PV, tumor center [7] | PV, tumor rim [7] | PV, whole tumor [7] | PV values (range over tumor regions, Table 5) [7] | estimated FLR values (range over tumor regions, Table 5) [7] [h⁻¹] | SI enhancement ratio (SI post/SI pre) of the whole untreated tumor [8] | residual tumor enhancement ratio (SI post/SI pre) [8] | also measured
Bevacizumab [Avastin] | – | – | – | – | – | – | – | – | – | – | – | – | – | – | – | – | – | – | dose enough to completely inhibit human VEGF-A (human VEGF-A): 50-100 μg/mouse; terminal half-life [1]: 1-2 weeks; tumor size [2]: 510±171 mm^3
Albumin-Gd-DTPA | – | – | – | – | – | – | – | – | – | – | – | – | – | – | – | – | – | – | FLR values estimated using Albumin-Gd-DTPA [3]: 1.27 to 8.10 h⁻¹; PV values estimated using Albumin-Gd-DTPA [3]: 0.023 to 0.065
(Gd-DTPA)-cystamine copolymers [GDCC-40] | 0.008 ± 0.004 | 0.008 ± 0.005 | 0.028 ± 0.029 | 0.030 ± 0.022 | 0.014 ± 0.002 | 0.028 ± 0.005 | about 1.5 min | about 12 min | 3.24 ± 1.10* 1/hr | 5.21 ± 0.88* 1/hr | 4.57 ± 0.91* 1/hr | 0.058 ± 0.046 | 0.082 ± 0.038 | 0.076 ± 0.032 | 0.058 to 0.082 | 3.24 to 5.21 | 1.65±0.21 | 1.51±0.19 | FLR, untreated tumor ([5]; 0.01 mmol-Gd/kg): 6.05 and 6.05 ± 3.58; PS, untreated tumor ([5]; 0.01 mmol-Gd/kg): 0.997 ± 0.613; PV, untreated tumor ([5]; 0.01 mmol-Gd/kg): 0.124 and 0.124 ± 0.045; FLR, untreated tumor ([5]; 0.025 mmol-Gd/kg): 5.06 and 5.06 ± 1.84; PS, untreated tumor ([5]; 0.025 mmol-Gd/kg): 0.611 ± 0.351; PV, untreated tumor ([5]; 0.025 mmol-Gd/kg): 0.123 and 0.123 ± 0.059; FLR, untreated tumor ([5]; 0.05 mmol-Gd/kg): 3.95 ± 0.81; PS, untreated tumor ([5]; 0.05 mmol-Gd/kg): 0.517 ± 0.216; PV, untreated tumor ([5]; 0.05 mmol-Gd/kg): 0.103 ± 0.043; untreated tumor enhancement ([6]; 0.01 mmol-Gd/kg): 0.14±0.03; untreated tumor enhancement ([6]; 0.025 mmol-Gd/kg): 0.26±0.05; untreated tumor enhancement ([6]; 0.05 mmol-Gd/kg): 0.62±0.19; ratio of SI at the tumor rim to SI of the muscle ([7]; at 15 min): more than 3; time after injection to reach contrast (SI of tumor rim to SI of muscle) similar to Gd-DTPA-BMA ([7]; mouse, in vivo): about 4 min
CNC(=O)CN(CCN(CCN(CC(=O)[O-])CC(=O)NC)CC(=O)[O-])CC(=O)[O-].[Gd+3] [Gd-DTPA-BMA, gadodiamide, reference compound] | 0.066 ± 0.047 | 0.062 ± 0.039 | 0.069 ± 0.055 | 0.137 ± 0.034 | 0.07 ± 0.013 | 0.102 ± 0.047 | about 1.5 min | ~7 min | 9.93 ± 3.19 h⁻¹ | 28.42 ± 4.36 h⁻¹ | 20.86 ± 1.18 h⁻¹ | 0.098 ± 0.019 | 0.190 ± 0.018 | 0.138 ± 0.020 | 0.098 to 0.190 | 14.93 to 28.42 | 1.60±0.19 | 1.66±0.10 | time at which tumor rim/muscle SI ratio reached plateau ([7]; DCE-MRI time course): ≤ 2 min
